“Also recorded” adds a separate entry of the source. Counter-ions that a name gives are not always drawn. Like-named read-outs stand apart in the source and are kept apart here.

The source of these data is patent USRE50049E1, “Compositions and methods for treating psoriasis” (SYMBIONYX PHARMACEUTICALS INC, priority 2015, dated 2024).

Data set [1] has as its system TNF α-treated human dermal fibroblasts (HDF). The data set is described as follows: PCR gene expression in TNF α-treated human dermal fibroblasts. The conditions noted are these: 24 hours, TNF-alpha 10 ng/ml. The data set is classed as cell-based.
For data set [2] the following is noted: cited from earlier work.
A further data set concerns S. typhimurium TA1535. The conditions noted are these: % of mutant colonies spontaneously occurring in water control.
The test system of data set [3] is psoriasiform keratinocytes (epidermal keratinocyte progenitors incubated with IL-17A/IL-22/TNFα). The data set is described as follows: DNA microarray gene expression in psoriasiform keratinocyte cultures. The data set is classed as cell-based, human. The settings on record: IDMF added after 24 h cytokine treatment, further 24 h. On the procedure:
Psoriasiform keratinocyte cultures were established by incubating epidermal keratinocyte progenitors from stratum basae (Zen-Bio, RTP, NC) with IL-17A/IL-22/TNFα ([…]) for 24 h. These cytokines have been reported to be key triggers in psoriasis (Y Tokura, T Mori, R Hino, Psoriasis and other Th17-mediated skin diseases. J UOEH, 32(4):317-328, 2010; A B Van Belle, M de Heusch, M M Lemaire, E Hendrickx, G Wamier, K Dunussi-Joannopoulos, L A Fouser, J C Renauld, L Dumoutier, IL-22 is required for imiquimod-induced psoriasiform skin inflammation in mice, J Immunol, 188(1):462-469, 2012; A Hänsel, C Günther, J Ingwersen, J Starke, M Schmitz, M Bachmann, M Meurer, E P Rieber, K Schäkel, Human slan (6-sulfo LacNAc) dendritic cells are inflammatory dermal dendritic cells in psoriasis and drive strong TH17/TH1 T-cell responses, J Allergy Clin Immunol, 127(3):787-794, 2011; Kim J, Krueger J G. The Immunopathogenesis of Psoriasis, Dermatol Clin, 33:13-23, 2015). […]
After 24 h of cytokine treatment, the IDMF test materials were added to cells and further incubation with IL-17A/IL-22/TNFα was pursued for another 24 h. At the end of the experiment total RNA was extracted from keratinocytes and quantified using DNA microarrays. […]

For data set [4], the system named is skin of healthy adult volunteers. Briefly: Human repeat insult patch test (HRIPT). The conditions noted are these: IDMF 2% and 5% in butylene glycol/glycerin base.
The subject of data set [5] is stratum granulosum (StGrm) coverage of mouse tail epidermis. The data set is described as follows: Murine tail model of psoriasis. The data set is classed as in vivo. The settings on record: 2 weeks of application. An excerpt:
The mouse tail test is a well-established animal model used for the development of FDA-approved anti-psoriasis drugs. Table 6 summarize the findings following 2 weeks of test material application on the tails, with the readout of improvement in stratum granulosum (StGrm) coverage +/− side effects.
The arrow in each photomicrograph points to the StGrm (stratum granulosum), which, as noted, is minimal in the control.

Data set [6] has as its system S. typhimurium (TA1535, TA1537). Briefly: AMES genotoxicity testing, overall conclusion (TA1535, TA1537). The conditions noted are these: including at the highest concentration required for testing (5 mg/ml).
The test system of a further data set is S. typhimurium TA1537. The settings on record: % of mutant colonies spontaneously occurring in water control.
Another data set has as its system 3T3. Briefly: 3T3 Neutral Red Uptake Phototoxicity Assay. The settings on record: even at the maximum concentration required for testing (100 μg/ml). The class given is cell-based. An excerpt:
The 3T3 Neutral Red Uptake Phototoxicity Assay was based on the OECD Guideline for Testing of Chemicals: […], with chlorpromazine and tazarotene as positive controls.

The conditions of data set [7]: Lammintausta et al., Contact Dermatitis 2010; cited from earlier work.
For data set [8] the following is noted: primary metabolite after oral administration of dimethyl fumarate; cited from earlier work.
Setting [9] is: mouse tail, IDMF 2%, Tazorac 0.1% tazarotene.

In the case of `COC(=O)/C=C/C(=O)OC` [DMF, Dimethyl fumarate, reference compound], in [1] (DMF 5 μg/ml), the NFKB expression entry is given as “decreased”. Further, in [2], the protein binding result is “does not display protein binding”.
Take `COC(=O)/C=C/C(=O)OC1COC2C(OC(=O)/C=C/C(=O)OC)COC12` (centres unmarked) [IDMF, isosorbide di-(methylfumarate)]: the “% CTR (TA1535)” value came out at 96 % CTR with S. typhimurium TA1535 (8 μg/ml); 89 % CTR in the data set with S. typhimurium TA1535 (40 μg/ml); 68 % CTR with S. typhimurium TA1535 (200 μg/ml); 64 % CTR in the data set on S. typhimurium TA1535 (1 mg/ml); 18 % CTR in the data set with S. typhimurium TA1535 (5 mg/ml). In data set [3], the “TNFα/IFNγ/IL-17 responses (DNA microarray)” value is on record as “significant inhibition”. The “antioxidant pathways, especially those related to glutathione (DNA microarray)” value in [3] is recorded as “upregulated”. In data set [4], the “conclusion of the HRIPT study” value is “non-sensitizing and non-irritating”. Also, the “participants with score zero” value in data set [4] (100 healthy adult volunteers) amounted to 100%. The “skin sensitization/irritation score (scale 0-5)” value in [4] (100 healthy adult volunteers) stood at 0. Besides, the flushing result in [4] (topical patch) is “no flushing was observed”. The “Tail observations: epidermal thickness” value in [5] (mouse tail, IDMF 2% in butylene glycol/glycerin, Tazorac 0.1% tazarotene, control 3-4 layers) is reported as “thickness (4-5 layers),”. The “Tail observations: granular layer (StGrm)” value in [5] (setting [9]) is on record as “significant extension of StGrm coverage; also recorded: extended granular layer”. For the same compound, the “Tail observations: inflammatory (leukocyte) infiltrate” value in data set [5] (setting [9]) is “no inflammation; also recorded: no inflammatory infiltrate,”. Also, in data set [5] (setting [9]), the “Tail observations: stratum corneum (StCr)” value is “normal basketwave StCr,”. Moreover, in [5] (mouse tail, control (no treatment) = 100, IDMF 2% in butylene glycol/glycerin, Tazorac 0.1% tazarotene, p < 0.0001), the StGrm expansion was 134 (p < 0.0001). The COX-2 expression in data set [1] (IDMF 1 μg/ml) is on record as −2.4 fold. For the same compound, the IL8 expression entry in data set [1] (IDMF 1 μg/ml) is reported as “did not increase”. Moreover, the NFKB expression result in [1] (IDMF 1 μg/ml) is on record as “decreased”. In data set [6], the “genotoxicity (AMES)” value is recorded as “not genotoxic”. In addition, the “% CTR (TA1537)” value with S. typhimurium TA1537 (8 μg/ml) stood at 83 % CTR; in the data set with S. typhimurium TA1537 (40 μg/ml) it was 117 % CTR; with S. typhimurium TA1537 (200 μg/ml), 91 % CTR; in the data set on S. typhimurium TA1537 (1 mg/ml), 30 % CTR; in the data set with S. typhimurium TA1537 (5 mg/ml), 13 % CTR. Further, the phototoxicity entry with 3T3 is given as “not phototoxic”.
In general, half-life refers to the time in which the quantity being followed falls by half. On to `COC(=O)/C=C/C(=O)O` [MMF, monomethyl fumarate], for which the skin sensitization entry in [7] is given as “known skin sensitizers”. Further, the half-life in data set [8] was 36 h. Also, in [2], the “protein binding (bound)” value is listed as “approximately 50%”.
As to `CCOC(=O)c1ccc(C#Cc2ccc3c(c2)C(C)(C)CCS3)nc1` [tazarotene, reference compound], the “adverse effects in mouse tail test” value in data set [5] (positive control) was “substantial hyperkeratosis, spongiosis and wide-spread inflammation”.
